Values joined by “and” are separate entries in the source; they are usually repeats but may differ in a detail not shown here. Equal values may be shown once. Read-outs that look alike come from different tables or passages of the source.
Columns and labels:
[1] = test system: BZD (central); experiment: In vitro CEREP profiling, BZD (central) (agonist radioligand); type: binding; conditions: test compound 10 uM
Source text: (§1) Supplement media-1.zip/Safety_Panel_Profile.csv, table | column: perc_inhibition

[2] = test system: SARS-CoV-2, isolate USA-WA1/2020; experiment: microbe, parasite or virus in culture; type: cell-based
[3] = target: T1, GR (h) (Homo sapiens, UniProt P04150); experiment: In vitro CEREP profiling, GR (h) (agonist radioligand); type: binding; conditions: test compound concentration 10 uM
T1 construct: purchased Eurofins Cerep (SafetyScreen44), recognised from the panel format
T1 sequence (P04150 1-777): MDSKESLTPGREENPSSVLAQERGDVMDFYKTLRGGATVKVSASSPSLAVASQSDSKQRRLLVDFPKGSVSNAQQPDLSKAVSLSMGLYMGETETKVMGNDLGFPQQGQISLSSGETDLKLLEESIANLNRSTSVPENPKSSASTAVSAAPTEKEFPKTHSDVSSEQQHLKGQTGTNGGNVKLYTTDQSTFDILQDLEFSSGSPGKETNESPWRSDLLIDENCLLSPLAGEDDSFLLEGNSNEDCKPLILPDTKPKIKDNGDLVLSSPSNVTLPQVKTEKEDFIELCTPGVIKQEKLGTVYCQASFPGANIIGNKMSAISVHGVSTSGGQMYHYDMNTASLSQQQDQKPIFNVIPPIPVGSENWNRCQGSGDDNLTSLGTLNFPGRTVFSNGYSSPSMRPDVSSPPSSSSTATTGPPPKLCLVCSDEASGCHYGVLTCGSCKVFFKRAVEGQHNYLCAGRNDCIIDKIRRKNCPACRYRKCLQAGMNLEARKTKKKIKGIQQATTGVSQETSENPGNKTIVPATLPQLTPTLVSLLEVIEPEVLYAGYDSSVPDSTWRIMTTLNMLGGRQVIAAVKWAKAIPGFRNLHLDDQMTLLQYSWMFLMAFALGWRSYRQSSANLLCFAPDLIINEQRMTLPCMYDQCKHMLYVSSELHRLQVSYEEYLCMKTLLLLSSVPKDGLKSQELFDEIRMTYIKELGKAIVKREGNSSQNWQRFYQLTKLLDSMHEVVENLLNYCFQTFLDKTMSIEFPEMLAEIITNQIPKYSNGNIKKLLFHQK
Source text: as §1

[4] = target: T2, 5-HT2B (h) (Homo sapiens, UniProt P41595); experiment: In vitro CEREP profiling, 5-HT2B (h) (agonist radioligand); type: binding; conditions: test compound concentration 10 uM
T2 construct: purchased Eurofins Cerep (SafetyScreen44), recognised from the panel format
Source text: as §1

[5] = In vitro dog hepatocyte stability; type: in vitro ADME
Source text: (§2) Supplement media-1.zip/Hepatocyte_Stability.csv, table | column: clint; t_half

[6] = target: T3, A2A (h) (Homo sapiens, UniProt P29274); experiment: In vitro CEREP profiling, A2A (h) (agonist radioligand); type: binding; conditions: test compound 10 uM
T3 construct: purchased Eurofins Cerep (SafetyScreen44), recognised from the panel format
Source text: as §1

[7] = Protein binding; type: in vitro ADME
Source text: Supplement media-1.zip/Protein_Binding.csv, table | column: fu; perc_bound; perc_free; perc_recovered

[8] = test system: MERS-CoV; experiment: microbe, parasite or virus in culture; type: cell-based; conditions: for perc_max_measured: maximum measured response of dose series; for perc_min_measured: minimum measured response of dose series
[9] = In vitro human hepatocyte stability; type: in vitro ADME
Source text: as §2

[10] = target: T4, PDE4D2 (h) (Homo sapiens, UniProt Q08499); experiment: In vitro CEREP profiling, PDE4D2 (h); type: biochemical; conditions: test compound concentration 10 uM, Enzyme and Cell-based assays
T4 construct: purchased Eurofins Cerep (SafetyScreen44), recognised from the panel format
Source text: as §1

[11] = target: T5, norepinephrine transporter (h) (Homo sapiens, UniProt P23975); experiment: In vitro CEREP profiling, norepinephrine transporter (h) (antagonist radioligand); type: binding; conditions: test compound concentration 10 uM
T5 construct: purchased Eurofins Cerep (SafetyScreen44), recognised from the panel format
Source text: as §1

[12] = test system: NMDA; experiment: In vitro CEREP profiling, NMDA (antagonist radioligand); type: binding; conditions: test compound concentration 10 uM
Source text: as §1

[13] = test system: KV channel; experiment: In vitro CEREP profiling, KV channel (antagonist radioligand); type: binding; conditions: test compound concentration 10 uM
Source text: as §1

[14] = Hepatic microsomal stability, MLM; type: in vitro ADME
[15] = target: T6, D1 (h) (Homo sapiens, UniProt P21728); experiment: In vitro CEREP profiling, D1 (h) (antagonist radioligand); type: binding; conditions: test compound 10 uM
T6 construct: purchased Eurofins Cerep (SafetyScreen44), recognised from the panel format
Source text: as §1

[16] = In vitro rat SD liver microsomal stability; type: in vitro ADME
Source text: (§3) Supplement media-1.zip/Hepatic_Microsomal_Stability.csv, table | column: clint; t_half

[17] = In vitro dog liver microsomal stability; type: in vitro ADME
Source text: as §3

[18] = target: T7, CB1 (h) (Homo sapiens, UniProt P21554); experiment: In vitro CEREP profiling, CB1 (h) (agonist radioligand); type: binding; conditions: test compound 10 uM
T7 construct: purchased Eurofins Cerep (SafetyScreen44), recognised from the panel format
Source text: as §1

[19] = test system: Na+ channel (site 2); experiment: In vitro CEREP profiling, Na+ channel (site 2) (antagonist radioligand); type: binding; conditions: test compound concentration 10 uM
Source text: as §1

[20] = HeLa-ACE2 SARS-CoV-2 antiviral effect without P-gp inhibitor, maximum measured response
[21] = HeLa-ACE2 SARS-CoV-2 antiviral effect without P-gp inhibitor, maximum measured response of dose series
[22] = HeLa-ACE2 SARS-CoV-2 antiviral effect without P-gp inhibitor, minimum measured response
[23] = HeLa-ACE2 SARS-CoV-2 antiviral effect without P-gp inhibitor, minimum measured response of dose series
[24] = In vitro dog plasma protein binding
[25] = In vitro fetal calf serum protein binding
[26] = In vitro human plasma protein binding
[27] = In vitro mouse plasma protein binding
[28] = In vitro rat plasma protein binding
[29] = Vero E6/TMPRSS2 MERS-CoV antiviral effect with P-gp inhibitor
[30] = In vitro mouse liver microsomal stability
[31] = Severe acute respiratory syndrome coronavirus 2, HeLa-ACE2
[32] = read-out: perc_inhibition, % inhibition of the binding of a ligand specific for each target
[33] = read-out: perc_inhibition (% inhibition of the binding of a ligand specific for each target)
[34] = Middle East respiratory syndrome-related coronavirus, VeroE6/TMPRSS2

T2 sequence (P41595 whole entry): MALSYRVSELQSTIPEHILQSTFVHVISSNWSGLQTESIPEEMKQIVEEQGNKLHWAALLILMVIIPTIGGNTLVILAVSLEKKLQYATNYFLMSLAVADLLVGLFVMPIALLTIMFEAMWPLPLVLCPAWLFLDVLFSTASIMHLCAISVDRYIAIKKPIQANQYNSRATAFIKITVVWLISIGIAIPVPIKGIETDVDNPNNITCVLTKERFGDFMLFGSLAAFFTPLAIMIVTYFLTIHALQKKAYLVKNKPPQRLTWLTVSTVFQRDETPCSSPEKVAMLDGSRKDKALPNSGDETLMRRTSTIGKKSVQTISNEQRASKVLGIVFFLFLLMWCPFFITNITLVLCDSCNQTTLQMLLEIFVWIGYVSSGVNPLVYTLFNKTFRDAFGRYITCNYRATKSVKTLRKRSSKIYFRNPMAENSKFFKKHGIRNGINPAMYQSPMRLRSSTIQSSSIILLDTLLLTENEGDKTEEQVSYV
T6 sequence (P21728 whole entry): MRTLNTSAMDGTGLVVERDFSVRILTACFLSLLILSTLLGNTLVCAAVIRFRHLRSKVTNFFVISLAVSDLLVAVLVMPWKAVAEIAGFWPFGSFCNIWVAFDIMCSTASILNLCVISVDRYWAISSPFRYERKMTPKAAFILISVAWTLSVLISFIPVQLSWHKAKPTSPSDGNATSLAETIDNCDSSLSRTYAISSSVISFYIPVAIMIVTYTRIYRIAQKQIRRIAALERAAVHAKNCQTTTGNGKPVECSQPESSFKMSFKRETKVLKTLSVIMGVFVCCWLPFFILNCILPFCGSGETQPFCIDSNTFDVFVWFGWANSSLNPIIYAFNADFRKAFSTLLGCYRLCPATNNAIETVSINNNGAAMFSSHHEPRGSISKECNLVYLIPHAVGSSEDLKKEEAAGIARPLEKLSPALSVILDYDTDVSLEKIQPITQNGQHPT
T5 sequence (P23975 whole entry): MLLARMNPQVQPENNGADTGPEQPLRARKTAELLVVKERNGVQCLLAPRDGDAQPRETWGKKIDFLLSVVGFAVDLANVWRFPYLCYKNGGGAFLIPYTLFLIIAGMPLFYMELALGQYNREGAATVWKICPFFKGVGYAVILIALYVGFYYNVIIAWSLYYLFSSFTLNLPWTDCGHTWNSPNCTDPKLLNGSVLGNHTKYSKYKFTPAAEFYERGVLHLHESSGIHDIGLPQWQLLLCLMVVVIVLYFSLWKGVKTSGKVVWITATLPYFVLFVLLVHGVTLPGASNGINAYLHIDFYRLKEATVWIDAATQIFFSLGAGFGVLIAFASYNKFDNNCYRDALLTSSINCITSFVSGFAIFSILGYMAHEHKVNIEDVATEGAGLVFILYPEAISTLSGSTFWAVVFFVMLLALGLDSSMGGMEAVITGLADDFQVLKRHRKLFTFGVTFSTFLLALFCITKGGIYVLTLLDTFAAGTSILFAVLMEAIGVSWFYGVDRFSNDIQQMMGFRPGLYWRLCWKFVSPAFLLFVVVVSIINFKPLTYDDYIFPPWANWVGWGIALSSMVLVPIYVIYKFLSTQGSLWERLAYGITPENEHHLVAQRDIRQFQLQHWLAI
T7 sequence (P21554 whole entry): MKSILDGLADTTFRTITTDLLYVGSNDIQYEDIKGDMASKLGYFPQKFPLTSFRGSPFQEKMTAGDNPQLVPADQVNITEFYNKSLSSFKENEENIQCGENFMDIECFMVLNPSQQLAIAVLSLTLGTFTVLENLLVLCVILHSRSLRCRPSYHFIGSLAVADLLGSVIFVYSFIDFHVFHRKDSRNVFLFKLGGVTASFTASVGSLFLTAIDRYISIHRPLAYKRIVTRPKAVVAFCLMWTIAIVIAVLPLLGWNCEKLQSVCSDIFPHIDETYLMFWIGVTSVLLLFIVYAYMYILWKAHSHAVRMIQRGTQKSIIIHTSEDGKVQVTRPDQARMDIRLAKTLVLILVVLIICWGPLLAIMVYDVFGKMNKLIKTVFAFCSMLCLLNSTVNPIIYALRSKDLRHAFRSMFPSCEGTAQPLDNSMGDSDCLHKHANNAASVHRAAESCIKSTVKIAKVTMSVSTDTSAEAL
T4 sequence (Q08499 303-809): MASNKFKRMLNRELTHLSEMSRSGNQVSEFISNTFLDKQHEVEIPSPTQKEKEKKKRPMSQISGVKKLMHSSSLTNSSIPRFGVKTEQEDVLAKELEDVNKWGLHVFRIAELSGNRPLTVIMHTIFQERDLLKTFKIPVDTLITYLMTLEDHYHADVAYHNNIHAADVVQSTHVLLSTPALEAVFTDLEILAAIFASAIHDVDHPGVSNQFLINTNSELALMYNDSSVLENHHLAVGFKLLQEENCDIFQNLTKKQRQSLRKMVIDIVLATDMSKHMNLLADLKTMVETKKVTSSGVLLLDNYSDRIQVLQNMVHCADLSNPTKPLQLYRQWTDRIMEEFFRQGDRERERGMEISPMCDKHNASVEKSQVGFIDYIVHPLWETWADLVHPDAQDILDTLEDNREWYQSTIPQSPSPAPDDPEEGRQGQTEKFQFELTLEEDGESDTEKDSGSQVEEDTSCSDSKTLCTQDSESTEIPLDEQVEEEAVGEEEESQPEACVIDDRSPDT
T3 sequence (P29274 whole entry): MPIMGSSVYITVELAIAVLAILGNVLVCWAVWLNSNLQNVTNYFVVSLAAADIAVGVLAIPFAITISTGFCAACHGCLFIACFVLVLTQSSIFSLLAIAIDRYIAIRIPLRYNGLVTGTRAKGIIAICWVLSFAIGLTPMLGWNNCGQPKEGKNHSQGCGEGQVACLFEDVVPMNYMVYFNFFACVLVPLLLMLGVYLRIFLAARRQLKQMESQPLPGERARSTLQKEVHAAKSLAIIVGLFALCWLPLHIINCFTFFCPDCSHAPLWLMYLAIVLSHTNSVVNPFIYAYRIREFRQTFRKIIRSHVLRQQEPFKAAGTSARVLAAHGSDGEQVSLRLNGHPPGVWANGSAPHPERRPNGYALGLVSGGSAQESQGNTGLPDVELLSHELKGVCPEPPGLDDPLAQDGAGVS

Compound: CC(C)[C@@H](Nc1ncnc2[nH]c(-c3cnn(C)c3C#N)cc12)c1ccc2c(n1)OCCO2 [ASAP-0010716]
- perc_inhibition (% inhibition of the binding of a ligand specific for each target) [1]: 8%
- perc_max_measured [2, 20]: 105.062%
- perc_max_measured [2, 21]: 119.294%
- perc_min_measured [2, 22]: 1.471%
- perc_min_measured [2, 23]: 1.653%
- EC90 ([2]; HeLa-ACE2 SARS-CoV-2 antiviral effect without P-gp inhibitor, read-out: ec90): 7.55 µM and 9.22 µM
- perc_inhibition (% inhibition of the binding of a ligand specific for each target) [3]: 22%
- perc_inhibition (% inhibition of the binding of a ligand specific for each target) [4]: 40%
- clint [5]: 3.91 uL/min/1E6 cells
- t_half [5]: 177.0 min
- perc_inhibition (% inhibition of the binding of a ligand specific for each target) [6]: 69%
- fu [7, 24]: 0.029
- perc_bound [7, 24]: 97.1%
- perc_free [7, 24]: 2.93%
- perc_recovered [7, 24]: 91.53%
- fu [7, 25]: 0.038
- perc_bound [7, 25]: 96.2%
- perc_free [7, 25]: 3.84%
- perc_recovered [7, 25]: 96.46%
- fu [7, 26]: 0.005
- perc_bound [7, 26]: 99.5%
- perc_free [7, 26]: 0.507%
- perc_recovered [7, 26]: 111.8%
- fu [7, 27]: 0.027
- perc_bound [7, 27]: 97.3%
- perc_free [7, 27]: 2.67%
- perc_recovered [7, 27]: 94.71%
- fu [7, 28]: 0.022
- perc_bound [7, 28]: 97.8%
- perc_free [7, 28]: 2.16%
- perc_recovered [7, 28]: 100.0%
- perc_max_measured [8, 29]: 144.33% and 125.176%
- perc_min_measured [8, 29]: 55.976% and 101.272%
- EC50 ([8]; Vero E6/TMPRSS2 MERS-CoV antiviral effect with P-gp inhibitor, read-out: ec50): > 5 µM
- EC90 ([8]; Vero E6/TMPRSS2 MERS-CoV antiviral effect with P-gp inhibitor, read-out: ec90): > 5 µM
- clint [9]: 182.0 uL/min/1E6 cells
- t_half [9]: 3.81 min
- perc_inhibition: % inhibition of control enzyme activity, PDE4D2 (h) [10]: 44%
- perc_inhibition (% inhibition of the binding of a ligand specific for each target) [11]: 4%
- perc_inhibition (% inhibition of the binding of a ligand specific for each target) [12]: 1%
- perc_inhibition (% inhibition of the binding of a ligand specific for each target) [13]: 2%
- clint [14, 30]: 371.0 µL/min/mg
- perc_remaining [14, 30]: 1.0%
- t_half [14, 30]: 4.5 min
- perc_remaining_no_cofactor ([14]; In vitro mouse liver microsomal stability; no cofactor): 99.0%
- perc_inhibition (% inhibition of the binding of a ligand specific for each target) [15]: 10%
- clint [16]: 156.0 µL/min/mg
- t_half [16]: 4.46 min
- clint [17]: 23.2 µL/min/mg
- t_half [17]: 29.8 min
- perc_inhibition (% inhibition of the binding of a ligand specific for each target) [18]: 14%
- perc_inhibition (% inhibition of the binding of a ligand specific for each target) [19]: 12%

Compound: CC(C)C(Nc1ncnc2[nH]c(C(=O)NC3CCN(C)C3)cc12)c1ccc2c(c1)S(=O)(=O)CCC2 (centres unmarked) [ASAP-0011198]
- perc_inhibition (% inhibition of the binding of a ligand specific for each target) [1]: 38%
- perc_max_measured [2, 20]: 109.068%
- perc_max_measured [2, 21]: 108.327%
- perc_min_measured [2, 22]: 93.8%
- perc_min_measured [2, 23]: 87.557%
- EC50 [2, 31]: > 20 µM
- EC90 [2, 31]: > 20 µM
- EC50 ([2]; Severe acute respiratory syndrome coronavirus 2, HeLa-ACE2, read-out: HelaACE2 EC50): > 20 µM
- inhibition at 10 µM [3, 32]: 11%
- inhibition at 10 µM [4, 32]: 6%
- t_half [5]: > 231.0 min
- hepatocyte CLint ([5]; hepatocytes): < 3 µL/min/1e6 cells
- inhibition at 10 µM [6, 33]: -4%
- perc_bound [7, 24]: 83.5%
- perc_free [7, 24]: 16.5%
- perc_recovered [7, 24]: 87.93%
- fu [7, 25]: 0.173
- perc_bound [7, 25]: 86.0% and 82.7%
- perc_free [7, 25]: 14.0% and 17.3%
- perc_recovered [7, 25]: 61.17% and 107.7%
- fu [7, 26]: 0.271
- perc_bound [7, 26]: 74.5% and 72.9%
- perc_free [7, 26]: 25.5% and 27.1%
- perc_recovered [7, 26]: 81.11% and 116.7%
- fu [7, 27]: 0.184
- perc_bound [7, 27]: 90.1% and 81.6%
- perc_free [7, 27]: 9.91% and 18.4%
- perc_recovered [7, 27]: 88.65% and 93.8%
- fu [7, 28]: 0.164
- perc_bound [7, 28]: 87.5% and 83.6%
- perc_free [7, 28]: 12.5% and 16.4%
- perc_recovered [7, 28]: 93.33% and 104.0%
- fraction unbound ([7]; bovine, fetal calf serum, In vitro fetal calf serum protein binding): 0.14
- fraction unbound ([7]; dog, plasma, In vitro dog plasma protein binding): 0.165
- fraction unbound ([7]; human, plasma, In vitro human plasma protein binding): 0.255
- fraction unbound ([7]; mouse, plasma, In vitro mouse plasma protein binding): 0.099
- fraction unbound ([7]; rat, plasma, In vitro rat plasma protein binding): 0.125
- EC50 [8, 34]: > 5 µM
- EC90 [8, 34]: > 5 µM
- perc_max_measured [8, 29]: 124.089% and 106.936%
- perc_min_measured [8, 29]: 88.282% and 84.091%
- t_half [9]: > 231.0 min
- hepatocyte CLint ([9]; hepatocytes): < 3 µL/min/1e6 cells
- inhibition at 10 µM ([10]; read-out: perc_inhibition: % inhibition of control enzyme activity, PDE4D2 (h)): 37%
- inhibition at 10 µM [11, 32]: -1%
- perc_inhibition (% inhibition of the binding of a ligand specific for each target) [12]: 1%
- perc_inhibition (% inhibition of the binding of a ligand specific for each target) [13]: 2%
- perc_remaining [14, 30]: 80.0%
- t_half [14, 30]: 151.0 min
- perc_remaining_no_cofactor ([14]; In vitro mouse liver microsomal stability, no cofactor): 92.0%
- microsomal CLint ([14]; liver microsomes; In vitro mouse liver microsomal stability): 11 µL/min/mg
- inhibition at 10 µM [15, 33]: -3%
- t_half [16]: 88.3 min
- microsomal CLint ([16]; Sprague-Dawley (SD), liver microsomes): 7.85 µL/min/mg
- t_half [17]: > 139.0 min
- microsomal CLint ([17]; liver microsomes): < 5 µL/min/mg
- inhibition at 10 µM [18, 33]: -10%
- perc_inhibition (% inhibition of the binding of a ligand specific for each target) [19]: 16%
